According to patent US20050112573A1, “Method of detecting toxic substance” (priority 2001, published 2005):

Tested on: yeast genes (level of expressed mRNA)
Experiment: DNA chip analysis of expressed mRNA of yeast genes after 2 h culture with a toxic chemical substance
Assay type: cell-based, Saccharomyces cerevisiae S288C
How it was run: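 S. cerevisiae S288C grown at 25° C in YPD; toxicant added at log phase at growth-inhibitory, non-lethal levels for 2 h, untreated cells as control. Poly(A) mRNA reverse-transcribed with Cy3/Cy5-dUTP, hybridized to whole-genome chip at 65° C >12 h; value is fluorescence ratio versus untreated.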

Substance: HgCl2 [(3)]
- The level of expressed mRNA in the presence of chemical substance/ (yeast gene YKL086W, ratio to control without chemical): 2.4
- The level of expressed mRNA in the presence of chemical substance/The level of expressed mRNA in the absence of chemical substance (yeast gene YKL096W): 8.1
- The level of expressed mRNA in the presence of chemical substance/ (yeast gene YKL151C, ratio to control without chemical substance, 2 h culture): 1.7
- The level of expressed mRNA in the presence of chemical substance/ (yeast gene YKL153W, ratio to control without chemical substance, 2 h culture): 2.0
- The level of expressed mRNA in the presence of chemical substance/The level of expressed mRNA in the absence of chemical substance (yeast gene YKL165C): 1.1
- The level of expressed mRNA in the presence of chemical substance/The level of expressed mRNA in the absence of chemical substance (yeast gene YKL193C): 1.1
- The level of expressed mRNA in the presence of chemical substance/ (yeast gene YKL195W, ratio to control without chemical substance, 2 h culture): 0.4
- The level of expressed mRNA in the presence of chemical substance/in the absence of chemical substance (yeast gene YKR009C): 1.5
- The level of expressed mRNA in the presence of chemical substance/ (yeast gene YKR091W, ratio to control without chemical): 0.9
- The level of expressed mRNA in the presence of chemical substance/ (yeast gene YLR054C, ratio to control without chemical substance, 2 h culture): 0.4
- The level of expressed mRNA in the presence of chemical substance/The level of expressed mRNA in the absence of chemical substance (yeast gene YLR120C): 2.4
- The level of expressed mRNA in the presence of chemical substance/The level of expressed mRNA in the absence of chemical substance (yeast gene YLR136C): 0.6
- The level of expressed mRNA in the presence of chemical substance/ (yeast gene YLR149C, ratio to control without chemical substance, 2 h culture): 3.4
- The level of expressed mRNA in the presence of chemical substance/ (yeast gene YLR152C, ratio to control without chemical substance, 2 h culture): 1.1
- The level of expressed mRNA in the presence of chemical substance/The level of expressed mRNA in the absence of chemical substance (yeast gene YLR178C): 8.8
- The level of expressed mRNA in the presence of chemical substance/ (yeast gene YLR194C, ratio to control without chemical): 1.3
- The level of expressed mRNA in the presence of chemical substance/The level of expressed mRNA in the absence of chemical substance (yeast gene YLR250W): 1.0
- The level of expressed mRNA in the presence of chemical substance/ (yeast gene YLR324W, ratio to control without chemical substance, 2 h culture): 0.9
- The level of expressed mRNA in the presence of chemical substance/The level of expressed mRNA in the absence of chemical substance (yeast gene YLR327C): 14.4
- The level of expressed mRNA in the presence of chemical substance/ (yeast gene YLR350W, ratio to control without chemical substance, 2 h culture): 3.2
- The level of expressed mRNA in the presence of chemical substance/in the absence of chemical substance (yeast gene YLR351C): 1.3
- The level of expressed mRNA in the presence of chemical substance/The level of expressed mRNA in the absence of chemical substance (yeast gene YLR356W): 4.9
- The level of expressed mRNA in the presence of chemical substance/The level of expressed mRNA in the absence of chemical substance (yeast gene YLR362W): 1.0
- The level of expressed mRNA in the presence of chemical substance/in the absence of chemical substance (yeast gene YLR375W): 0.9
- The level of expressed mRNA in the presence of chemical substance/ (yeast gene YLR387C, ratio to control without chemical substance, 2 h culture): 0.8
- The level of expressed mRNA in the presence of chemical substance/The level of expressed mRNA in the absence of chemical substance (yeast gene YLR391W): 2.9
- The level of expressed mRNA in the presence of chemical substance/The level of expressed mRNA in the absence of chemical substance (yeast gene YLR429W): 0.6
- The level of expressed mRNA in the presence of chemical substance/ (yeast gene YLR460C, ratio to control without chemical substance, 2 h culture): 2.0
- The level of expressed mRNA in the presence of chemical substance/ (yeast gene YML117W, ratio to control without chemical substance, 2 h culture): 0.9
- The level of expressed mRNA in the presence of chemical substance/The level of expressed mRNA in the absence of chemical substance (yeast gene YMR004W): 1.3
- The level of expressed mRNA in the presence of chemical substance/ (yeast gene YMR009W, ratio to control without chemical substance, 2 h culture): 0.5
- The level of expressed mRNA in the presence of chemical substance/ (yeast gene YMR067C, ratio to control without chemical substance, 2 h culture): 1.1
- The level of expressed mRNA in the presence of chemical substance/ (yeast gene YMR090W, ratio to control without chemical substance, 2 h culture): 2.3
- The level of expressed mRNA in the presence of chemical substance/The level of expressed mRNA in the absence of chemical substance (yeast gene YMR094W): 1.3
- The level of expressed mRNA in the presence of chemical substance/ (yeast gene YMR095C, ratio to control without chemical): 1.6
- The level of expressed mRNA in the presence of chemical substance/ (yeast gene YMR097C, ratio to control without chemical substance, 2 h culture): 0.7
- The level of expressed mRNA in the presence of chemical substance/ (yeast gene YMR102C, ratio to control without chemical substance, 2 h culture): 1.1
- The level of expressed mRNA in the presence of chemical substance/The level of expressed mRNA in the absence of chemical substance (yeast gene YMR104C): 2.2
- The level of expressed mRNA in the presence of chemical substance/ (yeast gene YMR107W, ratio to control without chemical substance, 2 h culture): 1.7
- The level of expressed mRNA in the presence of chemical substance/ (yeast gene YMR180C, ratio to control without chemical substance, 2 h culture): 1.0
- The level of expressed mRNA in the presence of chemical substance/ (yeast gene YMR184W, ratio to control without chemical substance, 2 h culture): 1.0
- The level of expressed mRNA in the presence of chemical substance/ (yeast gene YMR191W, ratio to control without chemical substance, 2 h culture): 1.9
- The level of expressed mRNA in the presence of chemical substance/The level of expressed mRNA in the absence of chemical substance (yeast gene YMR219W): 1.0
- The level of expressed mRNA in the presence of chemical substance/The level of expressed mRNA in the absence of chemical substance (yeast gene YMR226C): 1.4
- The level of expressed mRNA in the presence of chemical substance/in the absence of chemical substance (yeast gene YMR267W): 0.7
- The level of expressed mRNA in the presence of chemical substance/The level of expressed mRNA in the absence of chemical substance (yeast gene YMR275C): 1.2
- The level of expressed mRNA in the presence of chemical substance/The level of expressed mRNA in the absence of chemical substance (yeast gene YMR276W): 1.5
- The level of expressed mRNA in the presence of chemical substance/in the absence of chemical substance (yeast gene YMR278W): 1.4
- The level of expressed mRNA in the presence of chemical substance/in the absence of chemical substance (yeast gene YMR293C): 1.6
- The level of expressed mRNA in the presence of chemical substance/ (yeast gene YMR295C, ratio to control without chemical substance, 2 h culture): 1.2
- The level of expressed mRNA in the presence of chemical substance/The level of expressed mRNA in the absence of chemical substance (yeast gene YMR314W): 0.9
- The level of expressed mRNA in the presence of chemical substance/ (yeast gene YMR316W, ratio to control without chemical substance, 2 h culture): 1.1
- The level of expressed mRNA in the presence of chemical substance/The level of expressed mRNA in the absence of chemical substance (yeast gene YNL006W): 1.3
- The level of expressed mRNA in the presence of chemical substance/The level of expressed mRNA in the absence of chemical substance (yeast gene YNL007C): 5.1
- The level of expressed mRNA in the presence of chemical substance/ (yeast gene YNL044W, ratio to control without chemical substance, 2 h culture): 2.3
